Assay results published in patent US20160355530A1, “HEPATITIS C INHIBITORS AND USES THEREOF” (AbbVie Inc., priority 2010, published 2016).
Where two headings read alike, the source gives them in different places.

Tests used:
[1] = tested on: chimeric replicon with 2a-J6CF-derived NS5B; assay: microbe, parasite or virus in culture; type: cell-based, HCV genotype 2a; conditions: Hepatitis C virus, read-out: 2a chimera 5% FBS EC50
[2] = tested on: chimeric replicon with genotype 2b NS5B; assay: microbe, parasite or virus in culture; type: cell-based, HCV genotype 2b; conditions: Hepatitis C virus, read-out: 2b chimera 5% FBS EC50
[3] = tested on: chimeric replicon with genotype 4a NS5B; assay: microbe, parasite or virus in culture; type: cell-based, HCV genotype 4a; conditions: Hepatitis C virus, read-out: 4a chimera 5% FBS EC50
[4] = tested on: chimeric replicon with genotype 3a NS5B; assay: microbe, parasite or virus in culture; type: cell-based, HCV genotype 3a; conditions: Hepatitis C virus, read-out: 3a chimera 5% FBS EC50
[5] = biological target: T1, HCV NS5B polymerase 1b BK strain (Hepatitis C virus genotype 1b, UniProt P26663); assay: HCV NS5B polymerase enzymatic inhibition assay, strain 1b BK; type: biochemical; conditions: enzyme, strain 1b BK; read-out: HCV Polymerase Strain 1b BK IC50
T1 construct: six-histidine tag; made in house; host or cells: E. coli
Summary of the method: (§1)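 Incorporation of [3H]UTP (0.284 μM), alongside 20 μM each CTP and ATP, into RNA copied from a 5 nM 2.1 kb genotype 1b negative-strand template was measured after 3 h at 30° C using purified His-tagged NS5B truncated at residue 570. Product was spermine-precipitated, filtered and scintillation-counted; nonlinear regression gave IC50.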

[6] = tested on: HCV 1a-H77 subgenomic replicon; assay: microbe, parasite or virus in culture; type: cell-based, HCV genotype 1a; conditions: Hepatitis C virus, stable replicon
[7] = biological target: T2, HCV NS5B polymerase 1a-H77-C316Y (Hepatitis C virus genotype 1a, UniProt P27958, C2736Y); assay: biochemical; design: species or system HCV genotype 1a
T2 construct: six-histidine tag; made in house; host or cells: E. coli
Summary of the method: as §1

[8] = biological target: T3, HCV NS5B polymerase 1a-H77 (Hepatitis C virus genotype 1a, UniProt P27958); assay: biochemical; design: species or system HCV genotype 1a; conditions: enzyme, strain 1a H77; read-out: HCV Polymerase Strain 1a H77 IC50
T3 construct: six-histidine tag; made in house; host or cells: E. coli
Summary of the method: as §1

[9] = tested on: HCV NS5B polymerase 1a-H77-C316Y; assay: biochemical; design: species or system HCV genotype 1a; conditions: ratio of enzyme IC50s, 1a H77-C316Y / 1a H77
Summary of the method: as §1

[10] = tested on: HCV 1a-H77 C316Y mutant subgenomic replicon; assay: Stable replicon cell culture assay (luciferase), 1a-H77-C316Y mutant; type: cell-based, HCV genotype 1a; conditions: for EC50: Hepatitis C virus, read-out: Stable Replicon 1a H77-C316Y 5% FBS EC50; for Stable Replicon Fold Resistance C316Y/1a: ratio of stable replicon EC50s, C316Y / 1a H77
[11] = tested on: HCV 1b-BB7 subgenomic replicon; assay: microbe, parasite or virus in culture; type: cell-based, HCV genotype 1b; conditions: Hepatitis C virus, stable replicon
[12] = tested on: HCV 1a-H77 transient subgenomic replicon in Huh-7 derived cell line; assay: microbe, parasite or virus in culture; type: cell-based, HCV genotype 1a; conditions: Hepatitis C virus, Huh-7; transient replicon, 5% FBS; read-out: Transient Replicon 1a H77 5% FBS EC50
Summary of the method: (§2)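 Subgenomic replicon RNA (no Neo gene) electroporated into Huh-7-derived cells, plated at 5×10^3 cells/well; a 4 h plate gauged transfection efficiency. Cells exposed to 3-fold compound dilutions (0.5% DMSO) for 4 days at 37° C, then lysed for luciferase readout; EC50 calculated.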

[13] = tested on: HCV 1a-H77-C316Y transient subgenomic replicon in Huh-7 derived cell line; assay: microbe, parasite or virus in culture; type: cell-based, HCV genotype 1a; conditions: for EC50: Hepatitis C virus, Huh-7, read-out: Transient Replicon 1a H77-C316Y 5% FBS EC50; for Transient Replicon Fold Resistance C316Y/1a: ratio of transient replicon EC50s, C316Y / 1a H77
Summary of the method: as §2

[14] = 5% FBS, absence of human plasma, read-out: Stable Replicon 1a H77 5% FBS EC50
[15] = strain 1a H77, 5% FBS + 40% human plasma, read-out: 1a H77 5% FBS + 40% Human Plasma EC50
[16] = strain 1a H77, 5% FBS, no human plasma, read-out: 1a H77 5% FBS EC50
[17] = strain 1a H77, 5% FBS, read-out: 1a H77 5% FBS EC50
[18] = strain 1b BB7, 5% FBS + 40% human plasma, read-out: 1b BB7 5% FBS + 40% Human Plasma EC50
[19] = strain 1b BB7, 5% FBS, no human plasma, read-out: 1b BB7 5% FBS EC50
[20] = strain 1b BB7, 5% FBS, read-out: 1b BB7 5% FBS EC50

T3 sequence (P27958 2421-2990): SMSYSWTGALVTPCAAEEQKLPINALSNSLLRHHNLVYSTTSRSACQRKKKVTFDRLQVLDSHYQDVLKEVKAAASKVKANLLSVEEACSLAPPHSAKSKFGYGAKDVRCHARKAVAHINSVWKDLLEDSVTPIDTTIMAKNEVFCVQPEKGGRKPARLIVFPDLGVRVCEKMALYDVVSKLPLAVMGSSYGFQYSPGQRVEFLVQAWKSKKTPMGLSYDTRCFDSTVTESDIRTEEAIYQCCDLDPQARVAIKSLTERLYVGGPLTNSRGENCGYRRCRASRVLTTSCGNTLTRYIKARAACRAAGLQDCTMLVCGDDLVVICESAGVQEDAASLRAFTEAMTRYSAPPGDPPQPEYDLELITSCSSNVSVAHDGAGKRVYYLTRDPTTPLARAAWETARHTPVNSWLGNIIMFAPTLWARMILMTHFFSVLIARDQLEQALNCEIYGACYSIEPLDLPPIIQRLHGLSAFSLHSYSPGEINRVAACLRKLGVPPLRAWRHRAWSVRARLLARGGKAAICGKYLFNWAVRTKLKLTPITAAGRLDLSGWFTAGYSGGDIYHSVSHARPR
T1 sequence (P26663 2420-2989): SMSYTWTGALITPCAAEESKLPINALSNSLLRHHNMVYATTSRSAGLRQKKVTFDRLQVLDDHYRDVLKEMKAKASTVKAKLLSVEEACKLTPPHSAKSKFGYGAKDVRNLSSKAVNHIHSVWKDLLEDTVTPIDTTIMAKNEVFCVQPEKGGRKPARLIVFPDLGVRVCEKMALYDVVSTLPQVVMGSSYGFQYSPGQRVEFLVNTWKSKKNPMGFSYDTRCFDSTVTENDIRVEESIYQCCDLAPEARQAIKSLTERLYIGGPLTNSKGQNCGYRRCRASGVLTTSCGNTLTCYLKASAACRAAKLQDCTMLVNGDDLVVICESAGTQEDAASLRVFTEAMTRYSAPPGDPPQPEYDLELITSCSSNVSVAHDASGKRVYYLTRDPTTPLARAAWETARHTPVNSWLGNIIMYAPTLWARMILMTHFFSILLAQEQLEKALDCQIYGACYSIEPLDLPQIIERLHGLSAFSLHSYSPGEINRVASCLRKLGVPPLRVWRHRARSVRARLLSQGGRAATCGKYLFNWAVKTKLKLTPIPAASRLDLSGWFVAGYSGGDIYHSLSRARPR
T2 sequence (P27958 2421-2990 C2736Y): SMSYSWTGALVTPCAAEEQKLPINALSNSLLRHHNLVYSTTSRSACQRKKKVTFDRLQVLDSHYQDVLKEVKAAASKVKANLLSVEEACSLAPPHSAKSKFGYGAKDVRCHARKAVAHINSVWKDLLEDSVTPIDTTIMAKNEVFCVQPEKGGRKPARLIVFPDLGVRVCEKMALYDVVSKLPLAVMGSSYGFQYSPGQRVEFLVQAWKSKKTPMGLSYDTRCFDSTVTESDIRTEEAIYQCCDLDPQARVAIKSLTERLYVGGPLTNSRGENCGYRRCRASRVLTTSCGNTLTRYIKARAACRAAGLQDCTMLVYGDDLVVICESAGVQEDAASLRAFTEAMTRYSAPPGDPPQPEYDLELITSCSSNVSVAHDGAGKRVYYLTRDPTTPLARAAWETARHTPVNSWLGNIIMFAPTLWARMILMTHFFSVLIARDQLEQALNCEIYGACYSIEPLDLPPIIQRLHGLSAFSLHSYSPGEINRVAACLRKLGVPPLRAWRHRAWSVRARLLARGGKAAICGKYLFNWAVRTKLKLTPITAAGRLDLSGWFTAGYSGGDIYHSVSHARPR

SMILES | EC50 [1] | EC50 [2] | EC50 [3] | EC50 [4] | IC50 [5] | EC50 [6, 14] | EC50 [6, 15] | EC50 [6, 16] | EC50 [6, 17] | IC50 [7] | IC50 [8] | C316Y/1a Fold Resistance [9] | EC50 [10] | Stable Replicon Fold Resistance C316Y/1a [10] | EC50 [11, 18] | EC50 [11, 19] | EC50 [11, 20] | EC50 [12] | EC50 [13] | Transient Replicon Fold Resistance C316Y/1a [13]
CS(=O)(=O)N(CCc1csc(N)n1)c1cc2oc(-c3ccc(F)cc3)c(-c3ncc[nH]3)c2cc1C1CC1 [Example 97, N-[2-(2-amino-1,3-thiazol-4-yl)ethyl]-N-[5-cyclopropyl-2-(4-fluorophenyl)-3-(1H-imidazol-2-yl)-1-benzofuran-6-yl]methanesulfonamide] | 595 nM | 895 nM | 528 nM | 36 nM | 39 nM | 108 nM | 721 nM | 108 nM | 108 nM | 549 nM | 6 nM | 92 fold | 3770 nM | 34.9 fold | 644 nM | 62 nM | 62 nM | – | – | –
CC1NC(c2c(-c3ccc(F)cc3)oc3cc(N(CCO)S(C)(=O)=O)c(C4CC4)cc23)=NO1 (stereo not shown) [Example 158, N-[5-cyclopropyl-2-(4-fluorophenyl)-3-(5-methyl-4,5-dihydro-1,2,4-oxadiazol-3-yl)-1-benzofuran-6-yl]-N-(2-hydroxyethyl)methanesulfonamide] | 302 nM | 205 nM | 176 nM | 43 nM | 36.3 nM | 23.3 nM | 260 nM | 23.3 nM | 23.3 nM | 160 nM | 8.3 nM | 19 fold | 1150 nM | 49.4 fold | 335 nM | 23.5 nM | 23.5 nM | 19.5 nM | 304 nM | 16 fold
CS(=O)(=O)N(CCCc1nsc(=O)[nH]1)c1cc2oc(-c3ccc(F)cc3)c(-c3ncc[nH]3)c2cc1C1CC1 [Example 178, N-[5-cyclopropyl-2-(4-fluorophenyl)-3-(1H-imidazol-2-yl)-1-benzofuran-6-yl]-N-[3-(5-oxo-4,5-dihydro-1,2,4-thiadiazol-3-yl)propyl]methanesulfonamide] | 116 nM | 91.3 nM | 239 nM | 24.4 nM | 65 nM | 54.4 nM | 431 nM | 54.4 nM | 54.4 nM | 828 nM | 13 nM | 64 fold | 544 nM | 10.0 fold | 274 nM | 18 nM | 18 nM | – | – | –
CS(=O)(=O)N(CCCc1n[nH]c(=O)o1)c1cc2oc(-c3ccc(F)cc3)c(-c3ncc[nH]3)c2cc1C1CC1 [Example 179, N-[5-cyclopropyl-2-(4-fluorophenyl)-3-(1H-imidazol-2-yl)-1-benzofuran-6-yl]-N-[3-(5-oxo-4,5-dihydro-1,3,4-oxadiazol-2-yl)propyl]methanesulfonamide] | 66 nM | 84.9 nM | 77.8 nM | 10.5 nM | 25 nM | 9.8 nM | 52 nM | 9.8 nM | 9.8 nM | 45 nM | 4 nM | 11 fold | 686 nM | 70.0 fold | 78 nM | 9 nM | 9 nM | – | – | –
CS(=O)(=O)N(CCCCO)c1cc2oc(-c3ccc(F)cc3)c(-c3noc(=O)[nH]3)c2cc1C1CC1 [Example 185, N-[5-cyclopropyl-2-(4-fluorophenyl)-3-(5-oxo-4,5-dihydro-1,2,4-oxadiazol-3-yl)-1-benzofuran-6-yl]-N-(4-hydroxybutyl)methanesulfonamide] | 1000 nM | 1000 nM | > 1000 nM | 770 nM | 9000 nM | 1000 nM | 10000 nM | 1000 nM | 1000 nM | 20000 nM | 2300 nM | 9 fold | 10000 nM | 10.0 fold | 10000 nM | 1000 nM | 1000 nM | – | – | –
Cc1c[nH]c(-c2c(-c3ccc(F)cc3)oc3cc(N(CCCCO)S(C)(=O)=O)c(C4CC4)cc23)n1 [Example 187, N-[5-cyclopropyl-2-(4-fluorophenyl)-3-(4-methyl-1H-imidazol-2-yl)-1-benzofuran-6-yl]-N-(4-hydroxybutyl)methanesulfonamide] | 703 nM | 1000 nM | > 1000 nM | 91.7 nM | 168 nM | 41.9 nM | 409 nM | 41.9 nM | 41.9 nM | 159 nM | 25.8 nM | 6 fold | – | – | 244 nM | 63.2 nM | 63.2 nM | 28.9 nM | 128 nM | 4 fold
Cc1c[nH]c(-c2c(-c3ccc(F)cc3)oc3cc(N(CCO)S(C)(=O)=O)c(C4CC4)cc23)n1 [Example 189, N-[5-cyclopropyl-2-(4-fluorophenyl)-3-(4-methyl-1H-imidazol-2-yl)-1-benzofuran-6-yl]-N-(2-hydroxyethyl)methanesulfonamide] | 1050 nM | 1860 nM | 2940 nM | 231 nM | 470 nM | 163 nM | 774 nM | 163 nM | 163 nM | 461 nM | 25.5 nM | 18 fold | – | – | 445 nM | 114 nM | 114 nM | 139 nM | 326 nM | 2 fold
